Measurements taken from paper PMC9240326, “BacPROTACs mediate targeted protein degradation in bacteria” (Cell, 2022).
Where a SMILES comes first, the peptide text is derived from it. [ ]: non-standard residue; d: D form. Phe(βR-OMe) = CO[C@H](c1ccccc1)[C@H](N)C(=O)O; NMeL = CN[C@@H](CC(C)C)C(=O)O; NMeK = CN[C@@H](CCCCN)C(=O)O

What was measured:
[1] = biological target: B. subtilis ClpCP protease (Bacillus subtilis, UniProt P37571); type: biochemical
[2] = biological target: BRDTBD1 (Homo sapiens, UniProt Q58F21); test: Wes analysis of BRDTBD1 levels in M. smegmatis; type: cell-based; conditions: 30 min of incubation, relative to DMSO
[3] = Solubility in aqueous solutions (remark in ITC method); type: physicochemical
[4] = biological target: ClpC1NTD (Mycolicibacterium smegmatis, UniProt A0R574); test: biochemical; type: binding, Mycobacterium smegmatis
Sequence of ClpC1NTD (A0R574 1-148 limits assumed): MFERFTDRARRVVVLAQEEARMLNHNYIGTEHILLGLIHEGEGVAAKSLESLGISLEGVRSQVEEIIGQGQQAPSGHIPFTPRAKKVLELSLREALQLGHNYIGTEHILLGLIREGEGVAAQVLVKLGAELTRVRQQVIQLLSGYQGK

Sequence of B. subtilis ClpCP protease (P80244 whole entry): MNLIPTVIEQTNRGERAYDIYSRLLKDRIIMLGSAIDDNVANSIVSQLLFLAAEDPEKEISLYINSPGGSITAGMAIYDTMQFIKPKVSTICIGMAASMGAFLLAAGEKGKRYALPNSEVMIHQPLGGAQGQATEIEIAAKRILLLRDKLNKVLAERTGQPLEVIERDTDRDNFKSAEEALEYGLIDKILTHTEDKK
Sequence of B. subtilis ClpCP protease (P37571 whole entry): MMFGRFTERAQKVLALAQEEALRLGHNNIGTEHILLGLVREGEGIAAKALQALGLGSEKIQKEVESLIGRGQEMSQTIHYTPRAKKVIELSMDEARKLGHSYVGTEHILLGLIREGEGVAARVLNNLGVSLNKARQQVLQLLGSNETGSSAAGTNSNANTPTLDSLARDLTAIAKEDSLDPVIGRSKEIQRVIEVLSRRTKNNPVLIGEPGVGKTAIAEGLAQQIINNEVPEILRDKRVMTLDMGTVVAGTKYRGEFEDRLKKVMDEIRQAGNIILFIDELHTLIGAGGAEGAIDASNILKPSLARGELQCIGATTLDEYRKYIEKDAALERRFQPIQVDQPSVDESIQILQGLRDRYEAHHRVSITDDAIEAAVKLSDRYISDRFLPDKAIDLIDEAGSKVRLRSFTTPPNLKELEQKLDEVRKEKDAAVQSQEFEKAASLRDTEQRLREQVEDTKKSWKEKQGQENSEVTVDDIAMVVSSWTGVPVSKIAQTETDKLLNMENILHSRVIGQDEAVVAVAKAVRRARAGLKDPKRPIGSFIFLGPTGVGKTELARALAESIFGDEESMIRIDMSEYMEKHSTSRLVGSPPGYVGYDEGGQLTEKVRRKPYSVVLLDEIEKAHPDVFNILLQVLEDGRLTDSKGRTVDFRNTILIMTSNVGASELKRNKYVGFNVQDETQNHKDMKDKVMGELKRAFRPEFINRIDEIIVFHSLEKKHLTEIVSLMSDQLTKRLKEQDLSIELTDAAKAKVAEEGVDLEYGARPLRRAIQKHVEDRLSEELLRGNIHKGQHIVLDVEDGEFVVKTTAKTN

SMILES	mSA-Kre degradation by ClpCP, BacPROTAC-1 analogs [1]	BRDTBD1 levels in M. smegmatis (Wes) [2]	Solubility in aqueous solutions [3]	Kd [4] [nM]
CC(=O)NC(CCCNC(=N)N)C(=O)NCCOCCOCCC(=O)NCCOCCOCCC(=O)NCCOCCOCCC(=O)NC(CCCCNC(=O)CCCCC1SCC2NC(=O)NC21)C(N)=O (stereo not shown) [BacPROTAC-1c]	did not induce substrate degradation			
CC[C@H](C)[C@@H]1NC(=O)[C@H](CC(C)C)N(C)C(=O)[C@H](C(C)C)NC(=O)[C@H]([C@H](OC)c2ccccc2)NC(=O)[C@H](C)NC(=O)[C@H](CCCCN)N(C)C(=O)[C@H](Cc2c[nH]c3ccccc23)NC1=O [sCym-1] (cyclo(W[NMeK]A[Phe(βR-OMe)]V[NMeL]I))		did not significantly alter BRDTBD1 levels	low solubility	810
